From ChEMBL document CHEMBL6087428, “Discovery of potent and selective factor XIa inhibitors incorporating triazole-based benzoic acid as novel P2' fragments: Molecular dynamics simulations and anticoagulant activity” (Eur J Med Chem, 2025) come the findings set out here.

One assay concerns the target Plasma kallikrein (Homo sapiens, UniProt P03952). The assay can be described thus: Inhibition of human PKa using H-Pro-Phe-Arg-AMC as substrate incubated for 15 mins by fluorescence reader analysis.
For the next assay, the target named is Coagulation factor XI (Homo sapiens, UniProt P03951). The assay can be described thus: Inhibition of human Factor XIa using Boc-Glu(OBzl)-Ala-Arg-AMC assessed as AMC release preincubated for 15 mins followed by substrate addition and measured after 10 mins by microplate fluorescence reader analysis.
Sequence of Coagulation factor XI (P03951 19-387 limits assumed): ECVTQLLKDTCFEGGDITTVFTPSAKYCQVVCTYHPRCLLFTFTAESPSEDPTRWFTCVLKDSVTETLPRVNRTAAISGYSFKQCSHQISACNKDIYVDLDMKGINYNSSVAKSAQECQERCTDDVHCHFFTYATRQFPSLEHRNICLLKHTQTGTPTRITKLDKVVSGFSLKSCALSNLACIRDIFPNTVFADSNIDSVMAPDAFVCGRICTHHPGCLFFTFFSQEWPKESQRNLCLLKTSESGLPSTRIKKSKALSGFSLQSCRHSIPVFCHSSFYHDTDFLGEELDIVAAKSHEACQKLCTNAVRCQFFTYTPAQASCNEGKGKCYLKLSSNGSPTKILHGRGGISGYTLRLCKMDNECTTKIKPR
Sequence of Coagulation factor XI (P03951 388-625 limits assumed): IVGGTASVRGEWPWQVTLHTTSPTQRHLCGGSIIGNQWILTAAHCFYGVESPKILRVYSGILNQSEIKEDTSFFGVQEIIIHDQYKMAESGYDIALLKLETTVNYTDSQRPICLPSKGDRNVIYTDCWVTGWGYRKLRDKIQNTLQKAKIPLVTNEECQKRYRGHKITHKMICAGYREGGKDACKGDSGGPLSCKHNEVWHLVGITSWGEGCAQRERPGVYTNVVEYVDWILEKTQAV
Another assay concerns the target Coagulation factor X (Homo sapiens, UniProt P00742). Nature of the assay: Inhibition of human Factor Xa using Boc-Ile-Glu-Gly-Arg-AMC as substrate incubated for 15 mins by fluorescence reader analysis.
The test system of assay [1] is Plasma. The assay can be described thus: Anticoagulant activity in citrated human pooled plasma assessed as prolongation of activated partial thromboplastin time incubated for 5 mins by aPTT reagent based semi-automated coagulometric analysis. It is filed as functional.
For assay [2], the system named is Plasma. The assay can be described thus: Anticoagulant activity in citrated human pooled plasma assessed as prolongation of prothrombin time incubated for 3 mins by PT reagent based semi-automated coagulometric analysis. In kind it is functional. To be noted: 0.05 h.
In the next assay the target is Trypsin (Homo sapiens, UniProt P07477+P07478+P35030). The assay can be described thus: Inhibition of human trypsin using Boc-Ile-Glu-Gly-Arg-AMC as substrate incubated for 15 mins by fluorescence reader analysis. In kind it is protein assay.
The target of another assay is Prothrombin (Homo sapiens, UniProt P00734). The assay can be described thus: Inhibition of human thrombin using Boc-Asp(OBzl)-Pro-Arg-AMC as substrate incubated for 15 mins by fluorescence reader analysis.

Sequence of Plasma kallikrein (P03952 20-390 limits assumed): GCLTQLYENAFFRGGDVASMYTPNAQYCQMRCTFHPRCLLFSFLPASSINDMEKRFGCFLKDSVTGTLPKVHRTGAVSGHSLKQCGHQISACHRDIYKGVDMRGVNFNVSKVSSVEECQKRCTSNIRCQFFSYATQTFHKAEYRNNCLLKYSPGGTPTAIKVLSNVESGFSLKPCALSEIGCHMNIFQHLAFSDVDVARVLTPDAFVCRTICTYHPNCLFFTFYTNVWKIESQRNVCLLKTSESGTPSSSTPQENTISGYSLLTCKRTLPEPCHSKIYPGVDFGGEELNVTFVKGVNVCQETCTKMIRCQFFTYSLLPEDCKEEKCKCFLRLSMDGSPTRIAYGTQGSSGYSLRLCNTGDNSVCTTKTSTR
Sequence of Plasma kallikrein (P03952 391-638 limits assumed): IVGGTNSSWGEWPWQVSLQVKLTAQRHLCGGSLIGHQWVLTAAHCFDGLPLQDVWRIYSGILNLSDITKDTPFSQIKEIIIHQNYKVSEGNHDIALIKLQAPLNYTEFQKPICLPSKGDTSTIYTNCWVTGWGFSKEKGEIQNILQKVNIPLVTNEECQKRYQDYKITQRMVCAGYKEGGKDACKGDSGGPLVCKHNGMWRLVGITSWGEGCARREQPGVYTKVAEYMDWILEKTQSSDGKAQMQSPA
Sequence of Coagulation factor X (P00742 41-179 limits assumed): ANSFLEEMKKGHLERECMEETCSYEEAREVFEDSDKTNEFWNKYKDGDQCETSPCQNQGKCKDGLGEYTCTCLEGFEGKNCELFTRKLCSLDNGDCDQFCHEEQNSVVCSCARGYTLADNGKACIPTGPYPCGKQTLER
Sequence of Coagulation factor X (P00742 235-488 limits assumed): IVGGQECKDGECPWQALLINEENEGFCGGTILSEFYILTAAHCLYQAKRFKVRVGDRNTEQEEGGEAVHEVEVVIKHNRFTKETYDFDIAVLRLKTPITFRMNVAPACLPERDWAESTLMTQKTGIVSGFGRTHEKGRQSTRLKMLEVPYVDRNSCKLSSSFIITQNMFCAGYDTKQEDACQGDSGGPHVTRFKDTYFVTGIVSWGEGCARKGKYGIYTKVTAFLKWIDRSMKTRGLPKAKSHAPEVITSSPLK

For `CCC(c1cn(-c2ccccc2C(=O)OC)nn1)n1cc(OC)c(-c2cc(Cl)ccc2-n2cc(Cl)nn2)cc1=O` (centres undefined), the concentration for half-maximal inhibition (IC50) (in general, the midpoint of a concentration-inhibition curve) against Plasma kallikrein came out at 4840 nM; on Coagulation factor XI it was 1960 nM.
The like results for `COc1cn(Cc2cn(-c3ccc(Cl)nc3C)nn2)c(=O)cc1-c1cc(Cl)ccc1-n1cc(Cl)nn1` were, in that order, 11100 nM and 1020 nM.
The like results for `COC(=O)c1ccc(-n2cc(C(Cc3ccccc3)n3cc(OC)c(-c4cc(Cl)ccc4-n4cc(Cl)nn4)cc3=O)nn2)cc1` (centres undefined) were, in that order, 522 nM and 27 nM.
Turning to `COC(=O)c1cccc(-n2cc(Cn3cc(OC)c(-c4cc(Cl)ccc4-n4cc(Cl)nn4)cc3=O)nn2)c1`, the concentration for half-maximal inhibition (IC50) on Plasma kallikrein was found to be 1060 nM; on Coagulation factor XI, 519 nM.
Regarding `CCC(c1cn(-c2cccc(C(=O)O)c2)nn1)n1cc(OC)c(-c2cc(Cl)ccc2-n2cc(Cl)nn2)cc1=O` (centres undefined), the IC50 is 822 nM on Plasma kallikrein and 259 nM on Coagulation factor XI.
For `COc1cn(Cc2cn(-c3ccccc3C(=O)O)nn2)c(=O)cc1-c1cc(Cl)ccc1-n1cc(Cl)nn1`, in that order: 11600 nM and 272 nM.
The like results for `COc1ccc(-n2cc(Cn3cc(OC)c(-c4cc(Cl)ccc4-n4cc(Cl)nn4)cc3=O)nn2)c(C)n1` were, in that order, 15800 nM and 917 nM.
For `COc1cn(Cc2cn(-c3ccc(C(=O)O)cc3)nn2)c(=O)cc1-c1cc(Cl)ccc1-n1cc(Cl)nn1`, in that order: 832 nM and 38.7 nM.
Regarding `COC(=O)c1ccc(-n2cc(Cn3cc(OC)c(-c4cc(Cl)ccc4-n4cc(Cl)nn4)cc3=O)nn2)cc1`, the IC50 came to 1970 nM against Plasma kallikrein and 161 nM on Coagulation factor XI.
For `CC[C@H](c1cn(-c2ccc(C(=O)OC)cc2)nn1)n1cc(OC)c(-c2cc(Cl)ccc2-n2cc(Cl)nn2)cc1=O`, the IC50 at Coagulation factor X is 101000 nM; against Plasma kallikrein, 7850 nM; on Coagulation factor XI, 1100 nM; on Trypsin, above 100000 nM. In the assay with Plasma [1], the EC1.5 was determined as 392 µM. Moreover, the EC2 with Plasma [2] was above 100 µM.
On to `CCC(c1cn(-c2cnn(C)c2)nn1)n1cnc(-c2cc(Cl)ccc2-n2cc(Cl)nn2)cc1=O` (centres undefined), for which the IC50 stood at 87200 nM against Plasma kallikrein and 14600 nM at Coagulation factor XI.
In the case of `CC[C@@H](C(=O)Nc1ccc(C(N)=O)c(F)c1)n1cc(OC)c(-c2cc(Cl)ccc2-n2cc(C(F)(F)F)nn2)cc1=O`, the IC50 against Coagulation factor X worked out at 7210 nM; against Prothrombin, 6270 nM; against Trypsin, 4050 nM. Also, the EC1.5 in the assay on Plasma [1] amounted to 0.71 µM. Also, the EC2 in the assay on Plasma [2] was above 100 µM.
For the compound `COc1cn(C(Cc2ccccc2)c2cn(-c3cn[nH]c3)nn2)c(=O)cc1-c1cc(Cl)ccc1-n1cc(Cl)nn1` (centres undefined), the EC1.5 with Plasma [1] worked out at 2.64 µM. In addition, the IC50 was determined as 683 nM against Plasma kallikrein and 21.4 nM at Coagulation factor XI. Further, the EC2 with Plasma [2] was above 100 µM.
As for `COc1cn(Cc2cn(-c3cc(Br)cnc3C#N)nn2)c(=O)cc1-c1cc(Cl)ccc1-n1cc(Cl)nn1`, the IC50 turned out to be 14200 nM against Plasma kallikrein and 2000 nM at Coagulation factor XI.
`COc1cn(C(Cc2ccccc2)c2cn(-c3ccccc3)nn2)c(=O)cc1-c1cc(Cl)ccc1-n1cc(Cl)nn1` (centres undefined): the IC50 against Plasma kallikrein amounted to 501 nM; at Coagulation factor XI, 30.9 nM.
For `COc1cn(Cc2cn(-c3ccccc3)nn2)c(=O)cc1-c1cc(Cl)ccc1-n1cc(Cl)nn1`, in that order: 766 nM and 78.1 nM.
With `CCC(c1cn(-c2ccccc2)nn1)n1cc(OC)c(-c2cc(Cl)ccc2-n2cc(Cl)nn2)cc1=O` (centres undefined), the IC50 on Plasma kallikrein is 2590 nM; on Coagulation factor XI, 535 nM.
For `CCC(c1cn(-c2cccc(C(=O)OC)c2)nn1)n1cc(OC)c(-c2cc(Cl)ccc2-n2cc(Cl)nn2)cc1=O` (centres undefined), the 50% inhibitory concentration (IC50) is 2140 nM against Plasma kallikrein and 1600 nM at Coagulation factor XI.
The like results for `CCC(c1cn(-c2ccc(C(=O)OC)cc2)nn1)n1cc(OC)c(-c2cc(Cl)ccc2-n2cc(Cl)nn2)cc1=O` (centres undefined) were, in that order, 1490 nM and 373 nM.
The like results for `CCC(c1cn(-c2cnn(C)c2)nn1)n1cc(OC)c(-c2cc(Cl)ccc2-n2cc(Cl)nn2)cc1=O` (centres undefined) were, in that order, 6520 nM and 609 nM.
The like results for `CCC(c1cn(-c2cn[nH]c2)nn1)n1cc(OC)c(-c2cc(Cl)ccc2-n2cc(Cl)nn2)cc1=O` (centres undefined) were, in that order, 2510 nM and 379 nM.
For the compound `CCC(c1cn(-c2ccccc2C(=O)O)nn1)n1cc(OC)c(-c2cc(Cl)ccc2-n2cc(Cl)nn2)cc1=O` (centres undefined), the figures for the IC50 at Plasma kallikrein and on Coagulation factor XI were 9800 nM and 497 nM, respectively.
The like results for `COc1cn(C(Cc2ccccc2)c2cn(-c3ccccc3)nn2)c(=O)cc1-c1cc(Cl)ccc1-n1cc(C(F)(F)F)nn1` (centres undefined) were, in that order, 746 nM and 30.9 nM.
For `CCC(c1cn(-c2ccccc2)nn1)n1cnc(-c2cc(Cl)ccc2-n2cc(Cl)nn2)cc1=O` (centres undefined), in that order: 47200 nM and 6340 nM.
For `COc1cn(Cc2cn(-c3cn[nH]c3)nn2)c(=O)cc1-c1cc(Cl)ccc1-n1cc(Cl)nn1`, in that order: 2060 nM and 186 nM.
For `CCC(c1cn(-c2ccc(C(=O)O)cc2)nn1)n1cc(OC)c(-c2cc(Cl)ccc2-n2cc(Cl)nn2)cc1=O` (centres undefined), the IC50 came to 17400 nM against Coagulation factor X, 655 nM against Plasma kallikrein, 84.5 nM on Coagulation factor XI and 93100 nM on Trypsin. Moreover, the EC1.5 in the assay with Plasma [1] came out at 25.4 µM. In addition, the EC2 in the assay with Plasma [2] is above 100 µM.
Regarding `COC(=O)c1ncccc1-n1cc(Cn2cc(OC)c(-c3cc(Cl)ccc3-n3cc(Cl)nn3)cc2=O)nn1`, the IC50 at Plasma kallikrein turned out to be 19700 nM; on Coagulation factor XI it was 2000 nM.
For `COC(=O)c1ccccc1-n1cc(Cn2cc(OC)c(-c3cc(Cl)ccc3-n3cc(Cl)nn3)cc2=O)nn1`, in that order: 11500 nM and 1660 nM.
The like results for `COc1cn(Cc2cn(-c3cnn(C)c3)nn2)c(=O)cc1-c1cc(Cl)ccc1-n1cc(Cl)nn1` were, in that order, 3740 nM and 288 nM.
The like results for `COc1cn(Cc2cn(-c3cccnc3C(=O)O)nn2)c(=O)cc1-c1cc(Cl)ccc1-n1cc(Cl)nn1` were, in that order, 6800 nM and 379 nM.
As for `CCC(c1cn(-c2cn[nH]c2)nn1)n1cnc(-c2cc(Cl)ccc2-n2cc(Cl)nn2)cc1=O` (centres undefined), the IC50 turned out to be 23400 nM at Plasma kallikrein and 6550 nM on Coagulation factor XI.
The like results for `CCC(c1cn(-c2cnn(C(F)F)c2)nn1)n1cc(OC)c(-c2cc(Cl)ccc2-n2cc(Cl)nn2)cc1=O` (centres undefined) were, in that order, 8130 nM and 1330 nM.
As to `COc1cn(Cc2cn(-c3cccc(C(=O)O)c3)nn2)c(=O)cc1-c1cc(Cl)ccc1-n1cc(Cl)nn1`, the IC50 at Plasma kallikrein was 412 nM; on Coagulation factor XI, 78.7 nM.
For `COc1cn(Cc2cn(-c3ccc(Cl)nc3C#N)nn2)c(=O)cc1-c1cc(Cl)ccc1-n1cc(Cl)nn1`, in that order: 15800 nM and 1090 nM.
In the case of `COC(=O)c1ccc(-n2cc(C(Cc3ccccc3)n3cc(OC)c(-c4cc(Cl)ccc4-n4cc(C(F)(F)F)nn4)cc3=O)nn2)cc1` (centres undefined), the IC50 against Plasma kallikrein turned out to be 643 nM; on Coagulation factor XI, 38.3 nM.
With `COc1cn(C(Cc2ccccc2)c2cn(-c3cn[nH]c3)nn2)c(=O)cc1-c1cc(Cl)ccc1-n1cc(C(F)(F)F)nn1` (centres undefined), in the assay with Plasma [1], the EC1.5 stood at 1.57 µM. Moreover, the IC50 against Plasma kallikrein is 900 nM; on Coagulation factor XI it was 23.2 nM. Further, in the assay on Plasma [2], the EC2 was above 100 µM.
Regarding `COc1cn(Cc2cn(-c3cccnc3C)nn2)c(=O)cc1-c1cc(Cl)ccc1-n1cc(Cl)nn1`, the IC50 against Plasma kallikrein turned out to be 14400 nM; on Coagulation factor XI, 1240 nM.
